Patent publication US5731155A, “Compositions for inhibition of intracellular transcription factors and methods therefor” (Washington University, priority 1996, dated 1998)
Where a SMILES comes first, the peptide text is derived from it. [ ]: non-standard residue; d: D form. pY = N[C@@H](Cc1ccc(OP(=O)(O)O)cc1)C(=O)O

Legend:
p91 = molecular target: T1, p91 (Homo sapiens, UniProt P42224); assay: Electrophoretic mobility shift assay (EMSA) of IFNγ-induced p91 activation in Colo-205 homogenates; assay type: biochemical; details: phosphopeptide 3 μM
T1 construct: endogenous in cells; host or cells: Colo-205 (human adenocarcinoma) cell homogenates
T1 sequence (P42224 1-750): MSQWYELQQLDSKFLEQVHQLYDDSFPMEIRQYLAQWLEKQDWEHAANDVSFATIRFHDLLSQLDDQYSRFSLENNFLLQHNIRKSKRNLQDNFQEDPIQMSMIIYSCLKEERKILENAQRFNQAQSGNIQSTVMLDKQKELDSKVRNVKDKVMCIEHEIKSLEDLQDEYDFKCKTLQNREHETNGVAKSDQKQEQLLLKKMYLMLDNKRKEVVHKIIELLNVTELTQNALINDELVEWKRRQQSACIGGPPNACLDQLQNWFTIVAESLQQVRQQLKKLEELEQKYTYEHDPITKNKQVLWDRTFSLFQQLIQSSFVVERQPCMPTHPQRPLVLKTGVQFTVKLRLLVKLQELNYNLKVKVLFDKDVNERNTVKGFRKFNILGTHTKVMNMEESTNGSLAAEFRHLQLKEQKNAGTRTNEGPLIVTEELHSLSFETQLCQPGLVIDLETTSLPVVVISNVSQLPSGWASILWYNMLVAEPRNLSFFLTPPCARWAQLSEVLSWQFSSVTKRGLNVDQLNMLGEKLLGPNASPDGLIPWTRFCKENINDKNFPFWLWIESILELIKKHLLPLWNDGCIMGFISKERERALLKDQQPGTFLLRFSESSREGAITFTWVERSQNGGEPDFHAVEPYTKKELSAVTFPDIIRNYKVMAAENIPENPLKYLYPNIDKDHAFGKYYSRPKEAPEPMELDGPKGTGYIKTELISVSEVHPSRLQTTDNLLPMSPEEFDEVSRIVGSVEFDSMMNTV
Text: For this example, the finding that the latent IFNγ inducible transcription factor, p91, can be activated by IFNγ in a cell free system (Igarashi et al., Mol Cell Biol 13:1634-1640, 1993 which is incorporated by reference) was utilized to determine the biologic significance of the IFNγ induced tyrosine phosphorylation of the Y440 residue in the IFNγ receptor molecule. Colo-205 homogenates were stimulated with 1900 IRU of human IFNγ and p91 activation monitored using an electrophoretic mobility gel shift assay (EMSA) that employed a ^32 P-labeled 18 bp probe derived from the FcγR I gene promoter (Pearse et al., Proc Natl Acad Sci 90:4314-4318, 1993 which is incorporated by reference). The EMSAs were carried out essentially as described (Igarashi et al., supra). […] The reactions were then electrophoresed through a 6% polyacrylamide gel in 0.25×TBE for 3 hours at 150 V. Gels were dried and subsequently analyzed by autoradiography. […] Specificity of interactions were determined by the addition of 350 ng of the unlabeled GRR probe or 560 ng of the unlabeled 41 base pair double stranded oligonucleotide containing the ISRE of ISG15 (5'-GATCCATGCCTCGGGA-[…]-3' SEQ ID NO: 14) (David and Larner, Science 257:813-815, 1992 which is incorporated by reference). […]

IFNγ receptor α chain = assay: IFNγ dependent tyrosine phosphorylation of the IFNγ receptor α chain in Colo-205 cells (4G10 western blot); assay type: cell-based, human; details: pretreatment of Colo-205 cells with 1 mM
Text: For these experiments, Colo-205, a human adenocarcinoma cell line obtained from the ATCC, was used because it was known to express a high number of IFNγ receptors (10,000 receptors/cell) and has been well characterized with regard to both biologic responsiveness to IFNγ and IFNγ receptor […] phosphorylation (Hershey and Schreiber, 1989; Hershey et al., 1990 both of which are incorporated by reference). Colo-205 cells (5-10×10^7) were resuspended in one ml of PBS-10% FCS and were then incubated at 37° C., either in the presence or absence of rHuIFNγ (10,000 IRU). Purified recombinant human IFNγ was provided by Dr. Susan Kramer of Genentech, Inc. (South San Francisco, Calif.). […] Purified rHuIFNγ was radioiodinated, using Bolton Hunter reagent (ICN Chemicals, Radioisotope Division, Irvine, Calif.) to specific activities of 6.5-17.8 μCi/μg as described in Celada et al. (J Clin Invest 76:2196-2205, 1985 which is incorporated by reference). The reaction was stopped by adding 4 mls of ice-cold PBS. Cells were pelleted, washed once in ice-cold PBS, and then lysed in one ml of lysis buffer (25 mM Tris-HCl (pH 8.0), 1% NP-40, 150 mM NaCl, 1 mM sodium orthovanadate, 10 mM NaF, 1 mM PMSF, 5mM iodoacetamide, […] leupeptin and aprotinin). Solubilized cells were centrifuged at 15,000×g to remove cell nuclei and the supernatants were then incubated with 10 μg of GIR-94 for 30 minutes at 4° C. Protein G sepharose was added to the reaction mixture and the incubation continued for an additional 30 minutes. […]
To determine the amount of receptor precipitated at each time point, aliquots from each immunoprecipitate were subjected to western blot analysis using a monoclonal antibody (GIR-94, a murine antibody IgG2b) that is specific for the human IFNγ receptor extracellular domain. In the absence of added IFNγ, no tyrosine phosphorylated receptor was detected (FIG. 1, lane 1). […]

Colo-205 cells = assay: IFNγ dependent MHC class II induction on Colo-205 cells; assay type: cell-based, human; details: pretreatment of Colo-205 cells with 1 mM
Procedure: To further characterize the tyrosine phosphorylation of the […] receptor and to partially validate its biologic significance, concomitant dose-response phosphorylation and MHC class II induction analyses were performed. Colo-205 cells (1×10^8 cells/ml) were stimulated for 5 minutes with the indicated concentrations of rHuIFNγ as shown in FIG. 2. Cells were lysed and the IFNγ receptor immunoprecipitated, subjected to SDS-PAGE and electrophoretically transferred to nitrocellulose membranes as described above. Membranes were blotted with the mAb 4G10 (anti-phosphotyrosine) as described. Colo-205 cells (1×10^8 cells/ml) were also stimulated for 5 minutes with the indicated concentrations of rHuIFNγ, washed, and incubated an additional 48 hours in the absence of rHuIFNγ. MHC class II expression was quantitated by flow cytometric analysis.

[1] = Specific antiviral activity of rHuIFNγ; details: purified recombinant human IFNγ

**Q.** For `C[C@@H](O)[C@H](N)C(=O)N[C@@H](CO)C(=O)N[C@@H](Cc1ccccc1)C(=O)NCC(=O)N[C@@H](Cc1ccc(OP(=O)(O)O)cc1)C(=O)N[C@@H](CC(=O)O)C(=O)N[C@@H](CCCCN)C(=O)N1CCC[C@H]1C(=O)N[C@@H](Cc1c[nH]cn1)C(=O)O` [SEQ ID NO:3, Thr-Ser-Phe-Gly-Xaa-Asp-Lys-Pro-His] (H-TSFG[pY]DKPH-OH), which “inhibition of formation of activated p91-labeled probe complex” value (p91) is on record?
**A.** 61%

**Q.** For `CO[C@H]1[C@@H](OC)C[C@H](C)[C@@H](OC)C2=CC(=O)C=C(NC(=O)/C(C)=C/C=C\[C@H](OC)[C@@H](OC(N)=O)/C(C)=C/[C@@H]1C)C2=O` [herbimycin A, reference compound], which “IFNγ dependent tyrosine phosphorylation of the IFNγ receptor α chain” value (IFNγ receptor α chain) is on record?
**A.** inhibited

**Q.** What about the “IFNγ dependent MHC class II induction” value (Colo-205 cells) of the same molecule?
**A.** blocked

B1: rHuIFNγ: Purified recombinant human IFNγ provided by Genentech, Inc. (protein, UniProt P01579 24-161, looked up)
Interferon gamma: QDPYVKEAENLKKYFNAGHSDVADNGTLFLGILKNWKEESDRKIMQSQIVSFYFKLFKNFKDDQSIQKSVETIKEDMNVKFFNSNKKKRDDFEKLTNYSVTDLNVQRKAIHELIQVMAELSPAAKTGKRKRSQMLFRG
**Q.** Which specific antiviral activities [1] does the source give for B1 here?
**A.** 3.8×10^7 IRU/mg
